Results taken from patent US20140329863A1 (priority 2011, published 2014).
Values after ≈ are worked out from the molar mass of the structure shown. Where two headings read alike, the source gives them in different places.

Key:
[1] = system: T98G cells; test: cells; assay type: cell-based, human; conditions: Homo sapiens, T98G, read-out: EC50 (μM) Calcein
[2] = system: PrP^C in T98G cells; assay type: cell-based, human
[3] = system: PrP^Sc in dividing ScN2a-cl3 cells; assay type: cell-based, mouse
[4] = system: PrP^Sc in ScN2a-cl3 cells; assay type: cell-based, mouse; conditions: Western immunoblots
[5] = system: N2a-cl3 cells; conditions: mouse
[6] = in vitro; conditions: mouse
[7] = physchem
[8] = Single-dose pharmacokinetics in FVB mice (oral gavage, IV); conditions: single oral dose 10 mg/kg; for Brain/Plasma AUClast Ratio: FVB mice; for AUClast ± SD, Brain / AUClast ± SD, Plasma: two FVB mice
[9] = read-out: EC50 (nM): ELISA, dividing ScN2a-cl3 cells
[10] = read-out: Potency (nM) ELISA (EC50), PrP^Sc ELISA, dividing ScN2a-cl3 cells
[11] = read-out: EC50 (nM): Western, ScN2a-cl3 cells
[12] = read-out: Potency (nM) Western (EC50), dividing ScN2a-cl3 cells
[13] = pH 1.2, simulated gastric fluid

Row | SMILES | EC50 [3, 9] | EC50 [3, 10] | EC50 [4, 11] | EC50 [4, 12] | EC50 (nM): Calcein (LC50 values from calcein assays) [5] | CC50 [6] | also measured
1 | COc1ccc(CC(=O)NCc2ccccc2)cc1 [IND6612] |  |  |  |  |  |  | EC50 [1]: > 10 µM; Potency relative to the bromo analog (IND61769) [2]: equal potency to the bromo analog; EC50 ([2]; read-out: EC50 (μM) ELISA): 3.36 µM
2 | O=C(Cc1ccc(Br)cc1)NCc1ccccc1 [IND61769] |  |  |  |  |  |  | EC50 [1]: > 10 µM; EC50 ([2]; read-out: EC50 (μM) ELISA): 2.33 µM
3 | O=C(Cc1ccc(Cl)cc1)NCc1ccccc1 [IND126416] |  |  |  |  |  |  | EC50 [1]: > 10 µM; EC50 ([2]; read-out: EC50 (μM) ELISA): > 10 µM; EC50 ([2]; read-out: EC50, PrP^C ELISA in T98G cells): > 10 µM
4 | CCc1ccc(-c2cn3cc(C)ccc3n2)cc1 [IND-0009419] | 709 nM | 709 nM | 265 nM | 285 nM | MW: 236.3 EC50 (nM): ELISA: 709 Calcein: >10,000 Western: 265 | > 10000 nM | 
5 | CC(=O)c1ccc(N2CCN(Cc3ccccc3)CC2)cc1 [IND-0019136] | 8680 nM | 8680 nM | 615 nM | 615 nM | MW: 294.4 EC50 (nM): ELISA: 8681 Calcein: >10,000 Western: 615 | > 10000 nM | 
6 | c1cncc(-c2nc(-c3c[nH]c4ccccc34)cs2)c1 [IND-0024350] | 321 nM | 321 nM | 828 nM | 828 nM | MW: 277.3 EC50 (nM): ELISA: 321 Calcein: >10,000 Western: 828 | > 10000 nM | 
7 | Cc1[nH]c2ccccc2c1-c1csc(-c2cccnc2)n1 [IND-0024352] | 2270 nM | 2270 nM | 1700 nM | 1700 nM | MW: 291.4 EC50 (nM): ELISA: 2267 Calcein: >10,000 Western: 1698 | > 10000 nM | 
8 | COc1ccc(-c2cc(-c3ccc(OC)cc3O)[nH]n2)cc1 [IND-0025807] | 167 nM | 167 nM | 95 nM | 95 nM | MW: 296.3 EC50 (nM): ELISA: 167 Calcein: >10,000 Western: 95 | > 10000 nM | 
9 | Cn1c(=N)n(CC(=O)c2ccc(Cl)cc2)c2ccccc21 [IND-0026326] | 5900 nM | 5900 nM | 4970 nM | 4970 nM | MW: 299.8 EC50 (nM): ELISA: 5900 Calcein: >10,000 Western: 4967 | > 10000 nM | 
10 | COc1ccc(-c2cc(-c3ccc(C)cc3O)[nH]n2)cc1 [IND-0028801] | 245 nM | 245 nM | 117 nM | 117 nM | MW: 280.3 EC50 (nM): ELISA: 245 Calcein: >10,000 Western: 117 | > 10000 nM | 
11 | O=C(Nc1nc(-c2ccc(-c3ccccc3)cc2)cs1)C1CC1 [IND-0030410] | 317 nM | 317 nM | 194 nM | 194 nM | MW: 320.4 EC50 (nM): ELISA: 317 Calcein: >10,000 Western: 194 | > 10000 nM | solubility [7, 13]: 17.7 µM (≈ 5.67 µg/mL); solubility ([7]; pH 7.4, aqueous buffer): 12.7 µM (≈ 4.07 µg/mL)
12 | CCOc1ccc(NC(=O)c2cc3ccccc3cc2O)cc1 [IND-0031751] | 156 nM | 156 nM | 42 nM | 42 nM | MW: 307.3 EC50 (nM): ELISA: 156 Calcein: >10,000 Western: 42 | > 10000 nM | 
13 | COc1ccc(C(=O)Nc2ccc(-c3csc(C)n3)cc2)cc1 [IND-0033145] | 412 nM | 412 nM | 161 nM | 161 nM | MW: 324.4 EC50 (nM): ELISA: 412 Calcein: >10,000 Western: 161 | > 10000 nM | 
14 | CN(C)CCNc1nc(-c2ccc(Cl)cc2)nc2ccccc12 [IND-0034921] | 3690 nM | 3690 nM | 2010 nM | 2010 nM | MW: 326.8 EC50 (nM): ELISA: 3693 Calcein: >10,000 Western: 2009 | > 10000 nM | 
15 | COc1cccc(Nc2nc(N)c3ccccc3n2)c1 [IND-0035916] | 4020 nM | 4020 nM | 5990 nM | 5990 nM | MW: 266.3 EC50 (nM): ELISA: 4023 Calcein: >10,000 Western: 5987 | > 10000 nM | 
16 | COc1cc(N)c(-c2ccc3cc(OC)c(OC)cc3n2)cc1OC [IND-0044355] | 2140 nM | 2140 nM | 1830 nM | 1830 nM | MW: 340.4 EC50 (nM): ELISA: 2143 Calcein: >10,000 Western: 1833 | > 10000 nM | 
17 | Cn1c(=N)n(CC(=O)c2ccc(Br)cc2)c2ccccc21 [IND-0044723] | 1980 nM | 1980 nM | 1450 nM | 1450 nM | MW: 344.2 EC50 (nM): ELISA: 1983 Calcein: >10,000 Western: 1453 | > 10000 nM | 

Row | SMILES | EC50 [3, 9] | EC50 [3, 10] | EC50 [4, 11] | EC50 [4, 12] | EC50 (nM): Calcein (LC50 values from calcein assays) [5] | CC50 [6] | also measured
18 | CN1CCN(c2ccc(Nc3ccnc4cc(Cl)ccc34)cc2)CC1 [IND-0045193] | 1220 nM | 1220 nM | 2070 nM | 2070 nM | MW: 352.9 EC50 (nM): ELISA: 1220 Calcein: >10,000 Western: 2073 | > 10000 nM | Brain/Plasma AUClast Ratio [8]: 4.72; AUClast ± SD, Brain [8]: 7.36 ± 0.78 µM·h; AUClast ± SD, Plasma [8]: 1.56 ± 0.31 µM·h
19 | COc1cc(CNCCO)cc(Br)c1OCc1ccccc1Cl [IND-0046380] | 5080 nM | 5080 nM | 2150 nM | 2150 nM | MW: 400.7 EC50 (nM): ELISA: 5080 Calcein: >10,000 Western: 2148 | > 10000 nM | 
20 | Oc1ccc(/C=C/c2cc(O)cc(O)c2)cc1 [IND-0047971] | 2260 nM | 2260 nM | 584 nM | 584 nM | MW: 228.2 EC50 (nM): ELISA: 2260 Calcein: >10,000 Western: 584 | > 10000 nM | 
21 | N#Cc1ccc(/C=C/c2ccc(F)cc2)cc1 [IND-0047979] | 1700 nM | 1700 nM | 528 nM | 528 nM | MW: 223.3 EC50 (nM): ELISA: 1700 Calcein: >10,000 Western: 528 | > 10000 nM | 
22 | COc1ccc2cc3c(N)c(C(=O)Nc4ccc(C(C)=O)cc4)sc3nc2c1 [IND-0052025] | 57 nM | 57 nM | 61 nM | 61 nM | MW: 391.4 EC50 (nM): ELISA: 57 Calcein: >10,000 Western: 61 | > 10000 nM | EC50 ([3]; read-out: Antiprion activity EC50, thienopyridine analogs): 74 nM
23 | N#Cc1sc2nc(-c3ccc4c(c3)OCO4)ccc2c1N [IND-0052851] | 962 nM | 962 nM | 518 nM | 518 nM | MW: 295.3 EC50 (nM): ELISA: 962 Calcein: >10,000 Western: 518 | > 10000 nM | Brain/Plasma AUClast Ratio [8]: 2.59; AUClast ± SD, Brain [8]: 2.12 ± 0.93 µM·h; AUClast ± SD, Plasma [8]: 0.82 ± 0.31 µM·h
24 | CCOc1ccc(C(=O)Nc2ccc3oc(-c4ccc(OC)cc4)nc3c2)cc1 [IND-0114138] | 65 nM | 65 nM | 134 nM | 134 nM | MW: 388.4 EC50 (nM): ELISA: 65 Calcein: >10,000 Western: 134 | > 10000 nM | 
25 | COc1ccc(-c2nc3cc(NC(=O)c4ccc(OCc5ccccc5)cc4)ccc3o2)cc1 [IND-0114202] | 57 nM | 57 nM | 2560 nM | 2560 nM | MW: 450.5 EC50 (nM): ELISA: 57 Calcein: >10,000 Western: 2565 | > 10000 nM | 
26 | Cc1cccc(Nc2nc(-c3ccc(-c4ccc(N(C)C)nc4)cc3)cs2)n1 [IND-0116044] |  |  |  |  |  |  | solubility [7, 13]: 77.1 µM (≈ 29.9 µg/mL); solubility ([7]; pH 7.4, aqueous buffer): 14.3 µM (≈ 5.54 µg/mL)
27 | Cc1cccc(Nc2nc(-c3ccc(-c4ccc(OC(C)C)nc4)cc3)cs2)n1 [IND-0116091] |  |  |  |  |  |  | solubility [7, 13]: 13.1 µM (≈ 5.27 µg/mL); solubility ([7]; pH 7.4, aqueous buffer): 3.2 µM (≈ 1.29 µg/mL)
28 | Cc1cccc(Nc2nc(-c3ccc(-c4cc[n+]([O-])cc4)cc3)cs2)n1 [IND-0116092] |  |  |  |  |  |  | solubility [7, 13]: 17.6 µM (≈ 6.34 µg/mL); solubility ([7]; pH 7.4, aqueous buffer): 15.2 µM (≈ 5.48 µg/mL)
29 | COCCOc1ccc(-c2ccc(-c3csc(Nc4cccc(C)n4)n3)cc2)cn1 [IND-0116094] |  |  |  |  |  |  | solubility [7, 13]: 62.8 µM (≈ 26.3 µg/mL); solubility ([7]; pH 7.4, aqueous buffer): 2.2 µM (≈ 0.921 µg/mL)
30 | Cc1cccc(Nc2nc(-c3ccc(-c4ccc[n+]([O-])c4)cc3)cs2)n1 [IND-0116097] |  |  |  |  |  |  | solubility [7, 13]: 49 µM (≈ 17.7 µg/mL); solubility ([7]; pH 7.4, aqueous buffer): 5.1 µM (≈ 1.84 µg/mL)
31 | COCCOc1cccc(Nc2nc(-c3ccc(-c4ccccc4)cc3)cs2)n1 [IND-0116102] |  |  |  |  |  |  | solubility [7, 13]: 2.1 µM (≈ 0.847 µg/mL); solubility ([7]; pH 7.4, aqueous buffer): 2.7 µM (≈ 1.09 µg/mL)
32 | Cc1cccc(Nc2nc(-c3ccc(-c4ccc(N5CCN(C)CC5)nc4)cc3)cs2)n1 [IND-0116103] |  |  |  |  |  |  | solubility [7, 13]: 37.1 µM (≈ 16.4 µg/mL); solubility ([7]; pH 7.4, aqueous buffer): 4.4 µM (≈ 1.95 µg/mL)
33 | Cc1cccc(Nc2nc(-c3ccc(-c4ccnc(N5CCN(C)CC5)c4)cc3)cs2)n1 [IND-0116134] |  |  |  |  |  |  | solubility [7, 13]: 81.8 µM (≈ 36.2 µg/mL); solubility ([7]; pH 7.4, aqueous buffer): 40.2 µM (≈ 17.8 µg/mL)
34 | CN(C)c1cc(-c2ccc(-c3csc(NC(=O)C4CC4)n3)cc2)ccn1 [IND- 116123] |  |  |  |  |  |  | solubility [7, 13]: > 150 µM; solubility ([7]; pH 7.4, aqueous buffer): < 0.5 µM
